Experimental findings from patent US20220144815A1, “1,3,4-OXADIAZOLES AND THEIR DERIVATIVES AS NEW ANTIFUNGAL AGENTS” (Bayer Aktiengesellschaft, priority 2018, published 2022) are described below.

One data set can be described thus: Log P by HPLC on reversed phase columns, method [a] (EEC directive 79/831 Annex V.A8). It is filed as physicochemical.
Details: not given
The method, then:
Measurement of Log P values as provided herein was performed according to EEC directive 79/831 Annex V.A8 by HPLC (High Performance Liquid Chromatography) on reversed phase columns with the following methods: • ^[a] Log P value is determined by measurement of LC-UV, in an acidic range, with 0.1% formic acid in water and acetonitrile as eluent (linear gradient from 10% acetonitrile to 95% acetonitrile). • ^[b] Log P value is determined by measurement of LC-UV, in a neutral range, with 0.001 molar ammonium acetate solution in water and acetonitrile as eluent (linear gradient from 10% acetonitrile to 95% acetonitrile). • ^[c] Log P value is determined by measurement of LC-UV, in an acidic range, with 0.1% phosphoric acid and acetonitrile as eluent (linear gradient from 10% acetonitrile to 95% acetonitrile). If more than one Log P value is available within the same method, all the values are given and separated by “+”. Calibration was done with straight-chain alkan2-ones (with 3 to 16 carbon atoms) with known Log P values (measurement of Log P values using retention times with linear interpolation between successive alkanones). Lambda-max-values were determined using UV-spectra from 200 nm to 400 nm and the peak values of the chromatographic signals In table 1, the log P values were determined according to method [^a]. In table 2, the log P values were determined according to method [^a].
In turn, `CC(Nc1ncc(-c2nnc(C(F)F)o2)cn1)c1ccc(Cl)nc1` (racemic) [I.214, N-[(1RS)-1-(6-chloropyridin-3-yl)ethyl]-5-[5-(difluoromethyl)-1,3,4-oxadiazol-2-yl]pyrimidin-2-amine] showed a chromatographic logP of 2.27.

Staying with this data set, now noted: log P determined according to method [a] (HPLC on reversed phase columns).
The logP is a log measure of how a compound divides between an organic and an aqueous phase. Low readings indicate lower lipophilicity, high ones higher lipophilicity. The molecule `CC1(Nc2ncc(-c3nnc(C(F)F)o3)cn2)CC1` [Example I-066] yielded a logP of 1.90.
The molecule `CNC(=O)c1ccc(-c2nnc(C(F)F)o2)cn1` [Example I-033] returned a log partition coefficient (logP) of 1.32.
Still for that read-out and setting: as for `CC(C)(Nc1ncc(-c2nnc(C(F)F)o2)cn1)C1CC1` [Example I-084], the figure is 3.26.
The same measure, in the same setting: as for `Cc1noc(C)c1-c1ncc(-c2nnc(C(F)F)o2)cn1` [Example I-081], the figure is 2.57; as for `COC(=O)c1ccc(-c2nnc(C(F)(F)F)o2)cc1` [Example I-006], 2.97; as for `FC(F)c1nnc(-c2cnc(OCc3ccccc3)nc2)o1` [Example I-090], 2.75.
On to `N#Cc1ccc(-c2ncc(-c3nnc(C(F)F)o3)cn2)cc1` [Example I-085], for which the logP came out at 2.72.
Still for that read-out and setting: under `Fc1ccccc1Nc1ccc(-c2nnc(C(F)(F)Cl)o2)cn1` [Example I-053] stands 3.54; under `FC(F)c1nnc(-c2cnc(NCc3ccccc3)nc2)o1` [Example I-088], 2.57.
The same measure, in the same setting: as for `COC(=O)c1ccc(-c2nnc(C(F)F)o2)cc1` [Example I-003], the figure is 2.35.
On the same count and under the same terms, under `O=C(Nc1ccc(F)cc1F)c1ccc(-c2nnc(C(F)(F)F)o2)cc1` [Example I-028] stands 3.12.
As for `FC(F)c1nnc(-c2ccc(N3CCCCC3)nc2)o1` [Example I-040], the logP came out at 2.72.
The same measure, in the same setting: as for `CN(C(=O)c1ccc(-c2nnc(C(F)(F)F)o2)cc1)c1ccccc1` [Example I-026], the figure is 3.04; as for `O=C(Nc1ccc(-c2nnc(C(F)F)o2)cn1)c1ccc(F)cc1F` [Example I-055], 2.77; as for `CN(C)Nc1ncc(-c2nnc(C(F)F)o2)cn1` [Example I-064], 0.76.
The same measure, in the same setting: under `C#CCNC(=O)c1ccc(-c2nnc(C(F)F)o2)cn1` [Example I-039] stands 1.68; under `COCCNC(=O)c1ccc(-c2nnc(C(F)F)o2)cc1` [Example I-016], 1.58.
Same read-out and setting: under `CC1(C)OB(c2ccc(-c3nnc(C(F)F)o3)cc2)OC1(C)C` [Example I-021] stands 3.84; under `COCCNc1ncc(-c2nnc(C(F)F)o2)cn1` [Example I-068], 1.48.

Still in this data set, the particulars now being: reversed phase HPLC column; Method A: LC-UV, acidic range, 0.1% formic acid in water and acetonitrile; read-out: Log P.
On to `CCOC(=O)c1cnc(NC2(c3ccccc3)CCC2)nc1` [ethyl 2-[(1-phenylcyclobutyl)amino]pyrimidine-5-carboxylate], for which the chromatographic logP turned out to be 3.53.

The data set is the same for the next values; noted with them: reversed phase HPLC column; log P determined according to method [a] (HPLC on reversed phase columns); read-out: logP.
With `COc1ccccc1Cc1ncc(-c2nnc(C(F)F)o2)cn1` [I.107, 5-[5-(difluoromethyl)-1,3,4-oxadiazol-2-yl]-2-(2-methoxybenzyl)pyrimidine], the chromatographic logP turned out to be 2.51.
Still for that read-out and setting: under `Fc1ccccc1CNc1ncc(-c2nnc(C(F)F)o2)cn1` [I.111, 5-[5-(difluoromethyl)-1,3,4-oxadiazol-2-yl]-N-(2-fluorobenzyl)pyrimidin-2-amine] stands 2.62; under `Fc1ccccc1C1(Nc2ncc(-c3nnc(C(F)F)s3)cn2)CC1` [I.162, 5-[5-(difluoromethyl)-1,3,4-thiadiazol-2-yl]-N-[1-(2-fluorophenyl)cyclopropyl]pyrimidin-2-amine], 3.22.
On the same count and under the same terms, under `Fc1cccc(F)c1C1(Oc2ncc(-c3nnc(C(F)F)o3)cn2)CC1` [I.167, 5-[5-(difluoromethyl)-1,3,4-oxadiazol-2-yl]-2-{[1-(2,6-difluorophenyl)cyclopropyl]oxy}pyrimidine] stands 3.25.
Same read-out and setting: under `Fc1ccccc1Nc1ncc(-c2nnc(C(F)(F)F)s2)cn1` [I.130, N-(2-fluorophenyl)-5-[5-(trifluoromethyl)-1,3,4-thiadiazol-2-yl]pyrimidin-2-amine] stands 3.3; under `Fc1cccc(F)c1CNc1ncc(-c2nnc(C(F)F)o2)cn1` [I.129, N-(2,6-difluorobenzyl)-5-[5-(difluoromethyl)-1,3,4-oxadiazol-2-yl]pyrimidin-2-amine], 2.67; under `Cc1ccc(C2(Nc3ncc(-c4nnc(C(F)F)o4)cn3)COC2)cc1` [I.158, 5-[5-(difluoromethyl)-1,3,4-oxadiazol-2-yl]-N-[3-(4-methylphenyl)oxetan-3-yl]pyrimidin-2-amine], 2.57.

The data set is the same for the next values; noted with them: reversed phase HPLC column; method [a], HPLC on reversed phase columns; read-out: logP.
With `Fc1ccc([C@H]2C[C@H]2Nc2ncc(-c3nnc(C(F)F)o3)cn2)cc1` (racemic) [I.206, 5-[5-(difluoromethyl)-1,3,4-oxadiazol-2-yl]-N-[rac-(1R,2R)-2-(4-fluorophenyl)cyclopropyl]pyrimidin-2-amine], the chromatographic logP came to 2.97.
The same measure, in the same setting: under `CC(Nc1ncc(-c2nnc(C(F)F)o2)cn1)C1CCCCC1` (racemic) [I.193, N-[(1RS)-1-cyclohexylethyl]-5-[5-(difluoromethyl)-1,3,4-oxadiazol-2-yl]pyrimidin-2-amine] stands 3.74; under `O=C(N(c1ncc(-c2nnc(C(F)F)o2)cn1)C1(c2ccccc2F)CC1)C(F)(F)F` [I.267, N-{5-[5-(difluoromethyl)-1,3,4-oxadiazol-2-yl]pyrimidin-2-yl}-2,2,2-trifluoro-N-[1-(2-fluorophenyl)cyclopropyl]acetamide], 3.91.
Regarding `CN(c1ncc(-c2nnc(C(F)F)o2)cn1)C1(c2ccccc2F)CC1` [I.221, 5-[5-(difluoromethyl)-1,3,4-oxadiazol-2-yl]-N-[1-(2-fluorophenyl)cyclopropyl]-N-methylpyrimidin-2-amine], the chromatographic logP was 3.98.
Still for that read-out and setting: as for `CC(Nc1ncc(-c2nnc(C(F)F)o2)cn1)c1cscn1` (racemic) [I.194, 5-[5-(difluoromethyl)-1,3,4-oxadiazol-2-yl]-N-[(1RS)-1-(1,3-thiazol-4-yl)ethyl]pyrimidin-2-amine], the figure is 1.8.
On the same count and under the same terms, under `CC(C)(C)c1ccc(C2(Nc3ncc(-c4nnc(C(F)F)o4)cn3)CC2)cc1` [I.242, N-[1-(4-tert-butylphenyl)cyclopropyl]-5-[5-(difluoromethyl)-1,3,4-oxadiazol-2-yl]pyrimidin-2-amine] stands 4.05; under `COC(=O)C(Nc1ncc(-c2nnc(C(F)F)o2)cn1)c1ccccn1` (centres unmarked) [I.222, methyl ({5-[5-(difluoromethyl)-1,3,4-oxadiazol-2-yl]pyrimidin-2-yl}amino)(pyridin-2-yl)acetate], 1.92; under `CC(C)(CNc1ncc(-c2nnc(C(F)F)o2)cn1)c1ccc(F)cc1` [I.224, 5-[5-(difluoromethyl)-1,3,4-oxadiazol-2-yl]-N-[2-(4-fluorophenyl)-2-methylpropyl]pyrimidin-2-amine], 3.44.
As for `CC(C)(Nc1ncc(-c2nnc(C(F)F)o2)cn1)c1ccccc1F` [I.212, 5-[5-(difluoromethyl)-1,3,4-oxadiazol-2-yl]-N-[2-(2-fluorophenyl)propan-2-yl]pyrimidin-2-amine], the chromatographic logP turned out to be 3.19.
On the same count and under the same terms, under `CC(Nc1ncc(-c2nnc(C(F)F)o2)cn1)c1ccc(F)cc1F` (racemic) [I.215, 5-[5-(difluoromethyl)-1,3,4-oxadiazol-2-yl]-N-[(1RS)-1-(2,4-difluorophenyl)ethyl]pyrimidin-2-amine] stands 3.01; under `Cc1cccc(C2(Nc3ncc(-c4nnc(C(F)F)o4)cn3)CC2)c1` [I.202, 5-[5-(difluoromethyl)-1,3,4-oxadiazol-2-yl]-N-[1-(3-methylphenyl)cyclopropyl]pyrimidin-2-amine], 2.95; under `Fc1ccc(C2(Nc3ncc(-c4nnc(C(F)F)o4)cn3)CC2)cc1F` [I.229, 5-[5-(difluoromethyl)-1,3,4-oxadiazol-2-yl]-N-[1-(3,4-difluorophenyl)cyclopropyl]pyrimidin-2-amine], 2.84.
The same measure, in the same setting: as for `FC(F)c1nnc(-c2cnc(NC3(c4cccc(Oc5ccccc5)c4)CC3)nc2)o1` [I.265, 5-[5-(difluoromethyl)-1,3,4-oxadiazol-2-yl]-N-[1-(3-phenoxyphenyl)cyclopropyl]pyrimidin-2-amine], the figure is 3.62; as for `CC(Nc1ncc(-c2nnc(C(F)F)o2)cn1)c1ccncc1` (racemic) [I.190, 5-[5-(difluoromethyl)-1,3,4-oxadiazol-2-yl]-N-[(1RS)-1-(pyridin-4-yl)ethyl]pyrimidin-2-amine], 0.65.
As for `CC(Nc1ncc(-c2nnc(C(F)F)o2)cn1)c1cccc(C(F)(F)F)c1` (racemic) [I.239, 5-[5-(difluoromethyl)-1,3,4-oxadiazol-2-yl]-N-{(1RS)-1-[3-(trifluoromethyl)phenyl]ethyl}pyrimidin-2-amine], the chromatographic logP was found to be 3.37.
Still for that read-out and setting: under `FC(F)c1nnc(-c2cnc(NC3CCCC3c3ccccc3)nc2)o1` (racemic) [I.217, 5-[5-(difluoromethyl)-1,3,4-oxadiazol-2-yl]-N-[(1RS)-2-phenylcyclopentyl]pyrimidin-2-amine] stands 3.44.
